These are literature values, as cited in EP1001773B1, “ORAL SOLID PHARMACEUTICAL COMPOSITIONS CONTAINING NICORANDIL FOR A MODULATED RELEASE AND THE PROCESS FOR THEIR PREPARATION” (Biomedica Foscama Industria Chimico-Farmaceutica S.p.A., priority 1997, dated 1999).

For this series the following is noted: orally administered, conventional tablets; Am.J.Cardiol. 1989, 63, 25J-33J.

With `O=C(NCCO[N+](=O)[O-])c1cccnc1` [Nicorandil, N-(2-hydroxyethyl) nicotinamide nitric ester], the Tmax. was 30 min.
